Paper PMC4256409, “Role of Phenylalanine and Valine^10 Residues in the Antimicrobial Activity and Cytotoxicity of Piscidin-1” (PLoS ONE, 2014)
Where no end group is shown, it is not given here.

Tests used:
[1] = tested on: Drug-resistant bacterial strains; conditions: average over the 18 drug-resistant bacterial strains of Table 3
Excerpt: Escherichia coli KCTC 1682, E. coli KCTC 2593, E. coli KCTC 2571, Salmonella typhimurium KCTC 1926, Pseudomonas aeruginosa KCTC 1637, P. aeruginosa KCTC 2004, P. aeruginosa KCTC 2513, Bacillus subtilis KCTC 3068, B. subtilis KCTC 1021, B. subtilis KCTC 1022, Staphylococcus epidermidis KCTC 1917, Staphylococcus aureus KCTC 1621, S. aureus KCTC 1916, and S. aureus KCTC 3881 were purchased from the Korean Collection for Type Cultures, Korea Research Institute of Bioscience & Biotechnology (Taejon, Korea). Methicillin-resistant S. aureus (MRSA) (CCARM 3089, CCARM 3090, CCARM 3108, CCARM 3114, and CCARM 3126), multidrug-resistant E. coli (MDREC) (CCARM 1229 and CCARM 1238), multidrug-resistant S. typhimurium (MDRST) (CCARM 8003, CCARM 8007, and CCARM 8009), multidrug-resistant Acinetobacter baumanii (MDRAB) (CCARM 12005, CCARM 12035, CCARM 12036, CCARM 12037), and multidrug-resistant P. aeruginosa (MDRPA) (CCARM 2002, CCARM 2003, CCARM 2095, and CCARM 2163) were obtained from the Culture Collection of Antibiotic-Resistant Microbes (CCARM) at Seoul Women’s University in Korea. The antimicrobial activities of the peptides against selected organisms, including three Gram-positive, three Gram-negative, and five antibiotic-resistant bacteria, were determined using a broth microdilution assay. Briefly, single colonies of bacteria and fungi were inoculated into Luria-Bertani (LB) medium and cultured overnight at 37°C. An aliquot of the culture was transferred to 10 mL of fresh LB and incubated for an additional 3–5 h at 37°C until it reached the mid-logarithmic phase. Two-fold serial dilutions of the peptides in 1% peptone were prepared. The serial dilutions (100 µL) were added to 100 µL of cells (2×10^6 colony-forming units (CFU)/mL) in 96-well microtiter plates and incubated at 37°C for 16 h. […] MIC values were calculated as the average of triplicate measurements from three independent assays.

MDRAB CCARM 12035 = format: cell-based, multidrug-resistant Acinetobacter baumanii; conditions: broth microdilution, 37°C, 16 h, three independent experiments in triplicate, SD 14.0%
E. coli KCTC1682 = format: cell-based, Escherichia coli; conditions: E. coli KCTC1682; broth microdilution, 37°C, 16 h; three independent experiments in triplicate, SD 14.0%
S. aureus KCTC1621 = format: cell-based, Staphylococcus aureus; conditions: S. aureus KCTC1621; broth microdilution, 37°C, 16 h; three independent experiments in triplicate, SD 14.0%

FFHHIFRGIVHVGKTIHRLVTG [Pis-1, reference compound]
Average MIC [1]: 3.6 µM
MIC (MDRAB CCARM 12035): 2.0 µM
MIC (E. coli KCTC1682): 1.0 µM
MIC (S. aureus KCTC1621): 1.0 µM
